Test results from patent US20220401407A1, “REGULATION OF THE SLEEP/WAKE CYCLE USING C[…]” (Demetrix, Inc., priority 2021, published 2022).
“Also recorded” adds a separate entry of the source.

Experiments:
Assay type in all cases: cell-based
dopamine receptor DRD5 = dopamine receptor DRD5 (Homo sapiens, UniProt P21918); test: PathHunter β-Arrestin GPCR agonist assay, DRD5; set-up: DRD5 (Agonist) percent activity: concentration or dose not given beside the values; conditions: agonist mode; dopamine as control
Text: (§1) To perform the GPCR reactivity assay, a commercial GPCR assay, PathHunter® β-Arrestin from Eurofins DiscoverX Products (Fremont, Calif.), was used. […] At activation of the GPCR receptor and recruitment of β-arrestin, complementation of the peptide fragments occurs and restores β-galactosidase activity. The amount of β-galactosidase activity is then measurable using chemiluminescent reagents.
(§2) A total of four assays were run. Agonist assays were run for each of HCRTR1 and HCRTR2 and antagonist assays were run for HCRTR1 and HCRTR2. In each of the two agonist assays, PathHunter® cell lines were removed from a freezer stock and seeded at a volume of 20 μL into white walled, 384-well microplates and incubated at 37° C. Each cell was incubated with a sample to induce a response and then diluted to generate a 5× sample in assay buffer. 5 μL of the 5× sample was then added to cells and incubated at 37° C. for 90 or 180 minutes. The final assay concentration was 1%. The assay signal was generated through addition of 12.5 μL or 15 μL (50% V/V) of a detection reagent cocktail followed by a one hour incubation time at room temperature. Microplates were read following signal generation with a PerkinElmer Envision™ (PerkinElmer Inc., Waltham, Mass.) for chemiluminescent signal detection. Reactivity was analyzed using the CBIS data analysis suite (ChemInnovation, CA) where RLU refers to the raw measured values. The percent activity was then calculated using the formula: % Activity=100%*(mean RLU of test sample−mean RLU of control)/(mean max control ligand−mean RLU of vehicle control).
Table 2 depicts the results of evaluating the cannabinoid compounds to act as an agonist for the dopamine receptor DRD5. The same experimental procedure as used for HCRTR1 and HCRTR2 agonist testing (Table 1) was followed with the substitution of dopamine as the control for the DRD5 receptor.

HCRTR2 [1] = biological target: T1, HCRTR2 (Homo sapiens, UniProt O43614); test: PathHunter β-Arrestin GPCR agonist assay, HCRTR2; set-up: concentration or dose not given beside the values; conditions: agonist mode; Orexin A as control
T1 sequence (O43614 1-444): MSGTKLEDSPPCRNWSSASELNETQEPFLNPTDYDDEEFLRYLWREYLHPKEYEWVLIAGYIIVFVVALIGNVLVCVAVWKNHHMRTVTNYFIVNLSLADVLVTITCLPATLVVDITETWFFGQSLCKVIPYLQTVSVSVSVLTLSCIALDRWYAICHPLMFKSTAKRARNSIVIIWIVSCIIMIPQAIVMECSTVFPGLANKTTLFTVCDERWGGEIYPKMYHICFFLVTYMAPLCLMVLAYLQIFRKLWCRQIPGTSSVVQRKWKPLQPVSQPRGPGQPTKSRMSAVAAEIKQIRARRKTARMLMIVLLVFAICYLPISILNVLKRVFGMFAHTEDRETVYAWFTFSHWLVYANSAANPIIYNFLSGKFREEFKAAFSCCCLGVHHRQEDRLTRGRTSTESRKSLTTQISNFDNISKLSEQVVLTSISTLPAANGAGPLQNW
Description: (§3) To evaluate the role specific cannabinoid compounds may play on the sleep/wake cycle, a GPCR reactivity assay was performed to determine the reactivity of 19 cannabinoid compounds to the orexin receivers HCRTR1 and HCRTR2. The evaluated cannabinoid compounds were: CBN, THCV, CBDVA, CBG, CBL, CBC, CBDV, CBDA, CBD, CBGA, (+)-CBD, CBG-C4, CBD-C1, CBD-C2, CBGV, CBGA-C4, CBGVA, CBCA, and CBLA. Orexin A was used as the control for HCRTR1 and HCRTR2.
as §1, §2
(§4) For agonist activity, the percent activity is depicted while for antagonist activity, the percent inhibition is depicted.

HCRTR2 [2] = biological target: T1, HCRTR2; test: PathHunter β-Arrestin GPCR antagonist assay, HCRTR2; conditions: for HCRTR2 (Antagonist) percent inhibition: antagonist mode, agonist challenge at EC80
Description: as §3, §1
(§5) In each of the two antagonist assays, PathHunter® cell lines were removed from a freezer stock and seeded at a volume of 20 μL into white walled, 384-well microplates and incubated at 37° C. Each cell was pre-incubated with an antagonist followed by an agonist challenge at the EC80 concentration. Cells were then diluted to generate a 5× sample in assay buffer. 5 μL of the 5× sample was then added to cells and incubated at 37° C. for 30 minutes. Finally, 5 μL of 6×EC80 agonist in assay buffer were added to the cells and incubated at 37° C. for 90 minutes or 180 minutes. The assay signal was generated through addition of 12.5 μL or 15 μL (50% V/V) of a detection reagent cocktail followed by a one hour incubation time at room temperature. Microplates were read following signal generation with a PerkinElmer Envision™ (PerkinElmer Inc., Waltham, Mass.) for chemiluminescent signal detection. Reactivity was analyzed using the CBIS data analysis suite (ChemInnovation, CA) where RLU refers to the raw measured values. The percent inhibition was calculated using the formula: % Inhibition=100%*(1−mean RLU of test sample−mean RLU of control)/(mean RLU of EC80 control−mean RLU of vehicle control).
as §4

HCRTR1 [3] = biological target: T2, HCRTR1 (Homo sapiens, UniProt O43613); test: PathHunter β-Arrestin GPCR antagonist assay, HCRTR1; conditions: for HCRTR1 (Antagonist) percent inhibition: antagonist mode, agonist challenge at EC80
T2 sequence (O43613 1-425): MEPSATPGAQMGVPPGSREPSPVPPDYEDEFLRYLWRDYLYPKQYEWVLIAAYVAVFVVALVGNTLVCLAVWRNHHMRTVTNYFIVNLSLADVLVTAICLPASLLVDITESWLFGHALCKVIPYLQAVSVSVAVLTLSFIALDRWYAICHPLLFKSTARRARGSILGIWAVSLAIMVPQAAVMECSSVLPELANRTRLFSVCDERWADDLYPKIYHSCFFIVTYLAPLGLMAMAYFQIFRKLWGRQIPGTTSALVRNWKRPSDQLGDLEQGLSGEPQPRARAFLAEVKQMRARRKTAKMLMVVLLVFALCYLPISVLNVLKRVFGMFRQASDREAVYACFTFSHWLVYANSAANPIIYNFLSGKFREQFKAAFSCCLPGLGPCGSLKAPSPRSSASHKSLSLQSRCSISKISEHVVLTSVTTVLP
Description: as §3, §1, §5, §4

HCRTR1 [4] = biological target: T2, HCRTR1; test: PathHunter β-Arrestin GPCR agonist assay, HCRTR1; set-up: concentration or dose not given beside the values; conditions: agonist mode; Orexin A as control
Description: as §3, §1, §2, §4

Sequence of dopamine receptor DRD5 (P21918 whole entry, the tested form may be a part): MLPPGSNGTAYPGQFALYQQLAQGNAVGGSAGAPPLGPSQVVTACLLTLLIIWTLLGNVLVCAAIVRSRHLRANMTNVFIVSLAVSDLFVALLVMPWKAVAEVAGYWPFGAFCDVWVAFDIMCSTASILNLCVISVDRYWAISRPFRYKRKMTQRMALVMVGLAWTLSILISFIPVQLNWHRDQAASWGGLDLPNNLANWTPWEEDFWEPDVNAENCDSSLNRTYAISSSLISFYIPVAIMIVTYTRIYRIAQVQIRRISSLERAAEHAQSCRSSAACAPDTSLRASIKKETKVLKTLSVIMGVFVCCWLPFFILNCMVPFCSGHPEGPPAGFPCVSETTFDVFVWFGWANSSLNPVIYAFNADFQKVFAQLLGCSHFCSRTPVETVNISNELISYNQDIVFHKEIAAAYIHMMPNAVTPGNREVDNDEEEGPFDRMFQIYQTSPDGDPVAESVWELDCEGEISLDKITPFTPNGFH

Row | SMILES | DRD5 (Agonist) percent activity (dopamine receptor DRD5) [%] | HCRTR2 (Agonist) percent activity (HCRTR2 [1]) [%] | antagonist effect on HCRTR2 (in words) (HCRTR2 [2]) | HCRTR2 (Antagonist) percent inhibition (HCRTR2 [2]) [%] | antagonist effect on HCRTR1 (in words) (HCRTR1 [3]) | HCRTR1 (Antagonist) percent inhibition (HCRTR1 [3]) [%] | HCRTR1 (Agonist) percent activity (HCRTR1 [4]) [%]
1 | C=C(C)[C@@H]1CCC(C)=C[C@H]1c1c(O)cc(C)cc1O [CBD-C1, cannabidiorcol] | 0 | 1 | do not demonstrate meaningful activity | 9 | do not demonstrate meaningful activity | 12 | 3
2 | C=C(C)[C@@H]1CCC(C)=C[C@H]1c1c(O)cc(CC)cc1O [CBD-C2, cannabidol-C2] | 1 | 1 | do not demonstrate meaningful activity | 13 | do not demonstrate meaningful activity | 20 | 2
3 | C=C(C)[C@@H]1CCC(C)=C[C@H]1c1c(O)cc(CCCCC)cc1O [CBD, cannabidol] | 27 | 5 | antagonist effect; also recorded: acted as an antagonist | 85 | antagonist effect; also recorded: acted as an antagonist | 96 | 1
4 | CCCCCc1cc(O)c2c(c1)OC(C)(CCC=C(C)C)C=C2 (centres unmarked) [CBC, cannabichromene] | 22 | 3 | antagonist effect; also recorded: acted as an antagonist | 96 | antagonist effect; also recorded: acted as an antagonist | 98 | 0
5 | CCCCCc1cc2c(c(O)c1C(=O)O)C=CC(C)(CCC=C(C)C)O2 (centres unmarked) [CBCA, cannabichromenic acid] | 1 | 1 | do not demonstrate meaningful activity | 17 | do not demonstrate meaningful activity | 12 | 3
6 | CCCCc1cc(O)c(CC=C(C)CCC=C(C)C)c(O)c1 [CBG-C4, cannabigerol butyl] | 6 | 6 | antagonist effect; also recorded: acted as an antagonist | 45 | antagonist effect; also recorded: acted as an antagonist | 84 | 4
7 | C=C(C)[C@@H]1CCC(C)=C[C@H]1c1c(O)cc(CCCCC)c(C(=O)O)c1O [CBDA, cannabidiolic acid] | 5 | 0 | do not demonstrate meaningful activity | 10 | do not demonstrate meaningful activity | 2 | 1
8 | C=C(C)[C@@H]1CCC(C)=C[C@H]1c1c(O)cc(CCC)c(C(=O)O)c1O [CBDVA, cannabidivarinic acid] | 4 | 0 | do not demonstrate meaningful activity | 10 | do not demonstrate meaningful activity | 7 | 0
9 | CCCCCc1cc2c(c(O)c1C(=O)O)C1C3C(CCC3(C)O2)C1(C)C (centres unmarked) [CBLA, cannabicyclolic acid] | 0 | 0 | do not demonstrate meaningful activity | 15 | do not demonstrate meaningful activity | 7 | 2
10 | CCCCCc1cc(O)c2c(c1)OC(C)(C)c1ccc(C)cc1-2 [CBN, cannabinol] | 3 | 7 | antagonist effect; also recorded: acted as an antagonist | 94 | antagonist effect; also recorded: acted as an antagonist | 95 | 1
11 | CCCCc1cc(O)c(C/C=C(\C)CCC=C(C)C)c(O)c1C(=O)O [CBGA-C4, cannabigerolic acid butyl] | 0 | 1 | do not demonstrate meaningful activity | 10 | do not demonstrate meaningful activity | 2 | 3
